Values joined by “and” are separate entries in the source; they are usually repeats but may differ in a detail not shown here. Identical values can stand only once.
Key:
[1] = tested on: lithium-pilocarpine model of temporal lobe epilepsy in the rat; test: Quantification of cell densities in hippocampus, thalamus and cortex after Li-pilo SE (Example 1); format: in vivo; conditions: for damage compared to saline-saline rats / cell loss compared to saline-saline rats: DZP; for more damage (worsening of cell loss) compared with pilo-DZP rats: TC 10 mg/kg
Method: Quantification of cell densities was performed at 6 days after SE on 8 pilo-DZP, 8 pilo-TC10, 7 pilo-TC30, 7 pilo-TC60, and 6 saline-saline rats.
Cell counts were performed twice in a blind manner and were the average of at least 3 values from 2 adjacent sections in each individual animal. Counts involved only cells larger than 10 μm, smaller ones being considered as glial cells.
For the comparison of the characteristics of SE in pilo-saline and pilo-test compound animals, a non-paired Student's t-test was used. The comparison between the number of rats seizing in both groups was performed by means of a Chi square test. For neuronal damage, statistical analysis between groups was performed using ANOVA followed by a Fisher's test for multiple comparisons using the Statview software (Fisher R A, 1946a, Statistical Methods for Research Workers (10th edition) Oliver & Boyd, Edinburgh; Fisher R A, 1946b, The Design of Experiments (4th edition) Oliver & Boyd, Edinburgh) Behavioral and EEG Characteristics of Lithium-pilocarpine Status Epilepticus

[2] = tested on: lithium-pilocarpine model of temporal lobe epilepsy in the rat; test: Latency to and frequency of spontaneous recurrent seizures (SRS), lithium-pilocarpine model (Example 1); format: in vivo
Method: The bilateral EEG cortical activity was recorded during the whole duration of SE and behavioral changes were noted.
The effects of increasing doses of the test compound were studied on 3 groups of rats. The animals of the first group received 10 mg/kg of the test compound, i.p., 1 h after the onset of SE (pilo-TC10) while the animals of groups 2 and 3 received 30 and 60 mg/kg of the test compound (pilo-TC30 and pilo-TC60), respectively.
The control group received saline instead of pilocarpine and the test compound (saline-saline). […] Pilo-DZP received a second injection of 1 mg/kg DZP on the day of SE at about 10 h after the first one. Thereafter, Pilo-DZP and saline-saline rats received twice daily an equivalent volume of saline. […]
To calculate the frequency of SRS in pilocarpine-exposed rats, the seizure severity and distinguished stage III (clonic seizures of facial muscles and anterior limbs) and stage IV-V seizures (rearing and falling) was considered. […] The frequency of more severe stage IV-V SRS was highest during the first week in most groups, except pilo-TC30 and TC60 with late seizure onset where the SRS frequency was constant over the whole 4 weeks in TC30 group and over the first two weeks in the pilo-TC60 group with late SRS onset in which no stage IV-V seizures where no seizures recorded after the second week.

[3] = dorsal entorhinal cortex layers III-IV
[4] = ventral entorhinal cortex layers III-IV

In the case of `CN1C(=O)CN=C(c2ccccc2)c2cc(Cl)ccc21` [DZP, diazepam], the “damage compared to saline-saline rats” value ([1]; dentate gyrus granule cell layer) is reported as “did not show visible damage”, the “damage compared to saline-saline rats” value ([1]; dorsal entorhinal cortex layer II) is reported as 9% and the “damage compared to saline-saline rats” value [1, 3] is reported as 15%. For the same molecule, the “cell loss compared to saline-saline rats” value ([1]; hilus of dentate gyrus) was 73%, the “cell loss compared to saline-saline rats” value ([1]; hippocampus CA1 pyramidal cell layer) was 70% and 75% and the “cell loss compared to saline-saline rats” value ([1]; hippocampus CA3a) was 54%. The “cell loss compared to saline-saline rats” value ([1]; hippocampus CA3b) was 31%, the “cell loss compared to saline-saline rats” value ([1]; lateral thalamic nucleus) was 91% and the “cell loss compared to saline-saline rats” value ([1]; mediodorsal thalamic nucleus) was 56%. For the same molecule, the “cell loss compared to saline-saline rats” value ([1]; piriform cortex layer II) was 53%, the “cell loss compared to saline-saline rats” value ([1]; piriform cortex layers III-IV) was “total” and the “damage compared to saline-saline rats” value ([1]; ventral entorhinal cortex layer II) was “totally preserved”. The “cell loss compared to saline-saline rats” value [1, 4] was 44%.

In the case of `NC(=O)OC[C@@H](O)c1ccccc1Cl` [TC], the “frequency of stage III SRS” value ([2]; TC 10 mg/kg, weeks 3 and 4) is reported as “significantly increased over pilo-DZP values”, the occurrence of epilepsy ([2]; TC 60 mg/kg, one rat) is reported as “did not become epileptic in a delay of 9 months post-SE” and the “more damage (worsening of cell loss) compared with pilo-DZP rats” value [1, 3] is reported as 28%. For the same molecule, the “more damage (worsening of cell loss) compared with pilo-DZP rats” value [1, 4] was 35%, the cell loss ([1]; TC 30 mg/kg, hippocampus CA1 pyramidal layer) was 35% and the cell loss ([1]; TC 60 mg/kg, hippocampus CA1 pyramidal layer) was 16%. The “reduction of neuronal damage recorded in the pilo-DZP rats” value ([1]; TC 60 mg/kg, piriform cortex layer II) was 41%, the “reduction of neuronal damage recorded in the pilo-DZP rats” value ([1]; TC 60 mg/kg, piriform cortex layers III-IV) was 44% and the “neuroprotection compared to pilo-DZP rats” value ([1]; TC 60 mg/kg, ventral entorhinal cortex layers III-IV) was 31%. For the same molecule, the cell loss ([1]; pilo-test compound animals (range over doses), hilus of dentate gyrus) was 69-72%, the “protection compared to pilo-DZP rats” value ([1]; test compound 60 mg/kg, CA3b) was “significantly neuroprotective” and the “protection compared to pilo-DZP rats” value ([1]; test compound, CA3a area) was “did not afford any protection”.

Source: US20070021501A1, “Methods of treating epileptogenesis” (priority 2005, published 2007)
